Key:
[1] = tested on: Pseudomonas aeruginosa UI-18: Wild-type (PA-7); assay: MIC determination (CLSI), strain PA-7; assay type: cell-based; details: strain PA-7, unit assumed
Method in brief: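 MIC determined by broth dilution per CLSI M7-A7 guidelines with M100-S18 interpretive standards. Test organism: wild-type Pseudomonas aeruginosa UI-18, designated PA-7.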

[2] = tested on: Escherichia coli EC-1: VOGEL, mouse virulent; assay: MIC determination (CLSI), strain EC-1; assay type: cell-based; details: strain EC-1, unit assumed
Method in brief: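 The mouse-virulent VOGEL isolate of E. coli, EC-1, served as test organism. Minimum inhibitory concentration was measured by CLSI dilution methodology (M7-A7; M100-S18 standards).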

[3] = generated in the same manner as in Table 4

For Cc1cccc(-c2ccn(CCC(C)(C(=O)NO)S(C)(=O)=O)c(=O)c2)c1F (stereo not drawn) [Example 264, 4-[4-(2-fluoro-3-methylphenyl)-2-oxopyridin-1(2H)-yl]-N-hydroxy-2-methyl-2-(methylsulfonyl)butanamide], the PA-7 (MIC) [1] was 0.5 µg/mL and the EC-1 (MIC) [2] was 0.5 µg/mL.

In the case of CC(CCn1ccc(-c2cc(Cl)cc(Cl)c2)cc1=O)(C(=O)NO)S(C)(=O)=O (stereo not drawn) [Example 216, 4-[4-(3,5-dichlorophenyl)-2-oxopyridin-1(2H)-yl]-N-hydroxy-2-methyl-2-(methylsulfonyl)butanamide], the PA-7 (MIC) [1] is reported as 8 µg/mL and the EC-1 (MIC) [2] is reported as 4 µg/mL.

For Cc1cc(OCCCn2cncn2)ccc1-c1ccn(CCC(C)(C(=O)NO)S(C)(=O)=O)c(=O)c1 (stereo not drawn) [Example 289, N-hydroxy-2-methyl-2-(methylsulfonyl)-4-[4-{2-methyl-4-[3-(1H-1,2,4-triazol-1-yl)propoxy]phenyl}-2-oxopyridin-1(2H)-yl]butanamide], the PA-7 (MIC) [1] was 32 µg/mL and the EC-1 (MIC) [2] was 32 µg/mL.

With C[C@@](CCn1ccc(-c2cc(Cl)cc(Cl)c2)cc1=O)(C(=O)NO)S(C)(=O)=O [Example 336, (2R)-4-[4-(3,5-dichlorophenyl)-2-oxopyridin-1(2H)-yl]-N-hydroxy-2-methyl-2-(methylsulfonyl)butanamide] the PA-7 (MIC) [1] was 8 µg/mL and the EC-1 (MIC) [2] was 4 µg/mL.

Work on COc1ccc(-c2ccn(CC[C@](C)(C(=O)NO)S(C)(=O)=O)c(=O)c2)cc1F [Example 317, (2R)-4-[4-(3-fluoro-4-methoxyphenyl)-2-oxopyridin-1(2H)-yl]-N-hydroxy-2-methyl-2-(methylsulfonyl)butanamide] yielded a PA-7 (MIC) [1] of 1 µg/mL and an EC-1 (MIC) [2] of 2 µg/mL.

CC(CCn1ccc(-c2ccc(O)c(F)c2)cc1=O)(C(=O)NO)S(C)(=O)=O (stereo not drawn) [Example 70, 4-[4-(3-fluoro-4-hydroxyphenyl)-2-oxopyridin-1(2H)-yl]-N-hydroxy-2-methyl-2-(methylsulfonyl)butanamide] was tested, and the PA-7 (MIC) [1, 3] was over 64 µg/mL and the EC-1 (MIC) [2, 3] was over 64 µg/mL.

With C[C@@](CCn1ccc(-c2ccc(-c3ccncc3)cc2)cc1=O)(C(=O)NO)S(C)(=O)=O [Example 402, (2R)-N-hydroxy-2-methyl-2-(methylsulfonyl)-4-[2-oxo-4-(4-pyridin-4-ylphenyl)pyridin-1(2H)-yl]butanamide] the PA-7 (MIC) [1] was 2 µg/mL and the EC-1 (MIC) [2] was 0.5 µg/mL.

COc1ncccc1-c1ccn(CCC(C)(C(=O)NO)S(C)(=O)=O)c(=O)c1 (stereo not drawn) [Example 182, N-hydroxy-4-(2-methoxy-2′-oxo-3,4′-bipyridin-1′(2′H)-yl)-2-methyl-2-(methylsulfonyl)butanamide] gave a PA-7 (MIC) [1, 3] of 64 µg/mL and an EC-1 (MIC) [2, 3] of over 64 µg/mL.

Compound CC(CCn1ccc(-c2cccc(F)c2Cl)cc1=O)(C(=O)NO)S(C)(=O)=O (stereo not drawn) [Example 157, 4-[4-(2-chloro-3-fluorophenyl)-2-oxopyridin-1(2H)-yl]-N-hydroxy-2-methyl-2-(methylsulfonyl)butanamide] has a PA-7 (MIC) [1, 3] of 2 µg/mL and an EC-1 (MIC) [2, 3] of 4 µg/mL.

For Cc1cnc(-c2ccc(-c3ccn(CC[C@](C)(C(=O)NO)S(C)(=O)=O)c(=O)c3)cc2)nc1 [Example 461], the PA-7 (MIC) [1] was 1 µg/mL and the EC-1 (MIC) [2] was 0.125 µg/mL.

Cc1cc(-c2ccn(CC[C@](C)(C(=O)NO)S(C)(=O)=O)c(=O)c2)ccc1C#N [Example 467] gave a PA-7 (MIC) [1] of 2 µg/mL and an EC-1 (MIC) [2] of 4 µg/mL.

Work on CC(=O)c1ccc(-c2ccn(CC[C@](C)(C(=O)NO)S(C)(=O)=O)c(=O)c2)c(F)c1 [Example 320] yielded a PA-7 (MIC) [1] of 2 µg/mL and an EC-1 (MIC) [2] of 1 µg/mL.

Work on CC(CCn1ccc(-c2ccc(-c3ccc(F)cc3)nc2)cc1=O)(C(=O)NO)S(C)(=O)=O (stereo not drawn) [Example 281, 4-[6-(4-fluorophenyl)-2′-oxo-3,4′-bipyridin-1′(2′H)-yl]-N-hydroxy-2-methyl-2-(methylsulfonyl)butanamide] yielded a PA-7 (MIC) [1] of 8 µg/mL and an EC-1 (MIC) [2] of 0.5 µg/mL.

CC(CCn1ccc(-c2ccc(OCCCO)c(Cl)c2)cc1=O)(C(=O)NO)S(C)(=O)=O (stereo not drawn) [Example 246, 4-{4-[3-chloro-4-(3-hydroxypropoxy)phenyl]-2-oxopyridin-1(2H)-yl}-N-hydroxy-2-methyl-2-(methylsulfonyl)butanamide] was tested, and the PA-7 (MIC) [1] was 4 µg/mL and the EC-1 (MIC) [2] was 2 µg/mL.

Work on CNS(=O)(=O)c1ccc(-c2ccn(CCC(C)(C(=O)NO)S(C)(=O)=O)c(=O)c2)cc1 (stereo not drawn) [Example 102, N-hydroxy-2-methyl-4-[4-{4-[(methylamino)sulfonyl]phenyl}-2-oxopyridin-1(2H)-yl]-2-(methylsulfonyl)butanamide] yielded a PA-7 (MIC) [1, 3] of over 64 µg/mL and an EC-1 (MIC) [2, 3] of over 64 µg/mL.

Work on Cc1ccnc(-c2ccc(-c3ccn(CC[C@](C)(C(=O)NO)S(C)(=O)=O)c(=O)c3)cc2)n1 [Example 375, (2R)-N-hydroxy-2-methyl-4-{4-[4-(4-methylpyrimidin-2-yl)phenyl]-2-oxopyridin-1(2H)-yl}-2-(methylsulfonyl)butanamide] yielded a PA-7 (MIC) [1] of 4 µg/mL and an EC-1 (MIC) [2] of 0.5 µg/mL.

With CC(CCn1ccc(-c2ccc(OCCCN3CCCC(F)(F)C3)cc2)cc1=O)(C(=O)NO)S(C)(=O)=O (stereo not drawn) [Example 100, 4-[4-{4-[3-(3,3-difluoropiperidin-1-yl)propoxy]phenyl}-2-oxopyridin-1(2H)-yl]-N-hydroxy-2-methyl-2-(methylsulfonyl)butanamide] the PA-7 (MIC) [1, 3] was 8 µg/mL and the EC-1 (MIC) [2, 3] was 1 µg/mL.

Compound Cc1c(-c2cccc(Cl)c2Cl)ccn(CC[C@](C)(C(=O)NO)S(C)(=O)=O)c1=O [Example 414, (2R)-4-[4-(2,3-dichlorophenyl)-3-methyl-2-oxopyridin-1(2H)-yl]-N-hydroxy-2-methyl-2-(methylsulfonyl)butanamide] has a PA-7 (MIC) [1] of 8 µg/mL and an EC-1 (MIC) [2] of 2 µg/mL.

Cc1c(OCCCCO)ccc(-c2ccn(CC[C@](C)(C(=O)NO)S(C)(=O)=O)c(=O)c2)c1F [Example 324] was tested, and the PA-7 (MIC) [1] was 2 µg/mL and the EC-1 (MIC) [2] was 0.25 µg/mL.

Cn1c(=O)sc2cc(-c3ccn(CC[C@](C)(C(=O)NO)S(C)(=O)=O)c(=O)c3)ccc21 [Example 483] was tested, and the PA-7 (MIC) [1] was 8 µg/mL and the EC-1 (MIC) [2] was 8 µg/mL.

In the case of CC(CCn1ccc(-c2ccc3ccncc3c2)cc1=O)(C(=O)NO)S(C)(=O)=O (stereo not drawn) [Example 261, N-hydroxy-4-(4-isoquinolin-7-yl-2-oxopyridin-1(2H)-yl)-2-methyl-2-(methylsulfonyl)butanamide], the PA-7 (MIC) [1] is reported as 4 µg/mL and the EC-1 (MIC) [2] is reported as 8 µg/mL.

In the case of Cc1cc(-c2ccn(CCC(C)(C(=O)NO)S(C)(=O)=O)c(=O)c2)ccc1OCCCN1CCOCC1 (stereo not drawn) [Example 222, N-hydroxy-2-methyl-4-{4-[3-methyl-4-(3-morpholin-4-ylpropoxy)phenyl]-2-oxopyridin-1(2H)-yl}-2-(methylsulfonyl)butanamide], the PA-7 (MIC) [1] is reported as 8 µg/mL and the EC-1 (MIC) [2] is reported as 2 µg/mL.

For Cc1cc(F)ccc1-c1ccn(CCC(C)(C(=O)NO)S(C)(=O)=O)c(=O)c1 (stereo not drawn) [Example 122, 4-[4-(4-fluoro-2-methylphenyl)-2-oxopyridin-1(2H)-yl]-N-hydroxy-2-methyl-2-(methylsulfonyl)butanamide], the PA-7 (MIC) [1, 3] was 8 µg/mL and the EC-1 (MIC) [2, 3] was 16 µg/mL.

With Cc1cccc(-c2ccn(CC[C@](C)(C(=O)NO)S(C)(=O)=O)c(=O)c2)c1F [Example 323, (2R)-4-[4-(2-fluoro-3-methylphenyl)-2-oxopyridin-1(2H)-yl]-N-hydroxy-2-methyl-2-(methylsulfonyl)butanamide] the PA-7 (MIC) [1] was 0.5 µg/mL and the EC-1 (MIC) [2] was 0.25 µg/mL.

CC(C)(O)Cc1ccc(-c2ccn(CCC(C)(C(=O)NO)S(C)(=O)=O)c(=O)c2)cc1 (stereo not drawn) [Example 255, N-hydroxy-4-{4-[4-(2-hydroxy-2-methylpropyl)phenyl]-2-oxopyridin-1(2H)-yl}-2-methyl-2-(methylsulfonyl)butanamide] was tested, and the PA-7 (MIC) [1] was 8 µg/mL and the EC-1 (MIC) [2] was 2 µg/mL.

In the case of CC(CCn1ccc(-c2ccc(OCC3CCCO3)cc2)cc1=O)(C(=O)NO)S(C)(=O)=O (mixture of isomers) [Example 462], the PA-7 (MIC) [1] is reported as 1 µg/mL and the EC-1 (MIC) [2] is reported as 0.5 µg/mL.

With CC(CCn1ccc(-c2ccc(S(N)(=O)=O)cc2)cc1=O)(C(=O)NO)S(C)(=O)=O (stereo not drawn) [Example 230, 4-{4-[4-(aminosulfonyl)phenyl]-2-oxopyridin-1(2H)-yl}-N-hydroxy-2-methyl-2-(methylsulfonyl)butanamide] the PA-7 (MIC) [1] was over 64 µg/mL and the EC-1 (MIC) [2] was 64 µg/mL.

Compound CC(CCn1ccc(-c2ccc(Cl)cc2)cc1=O)(C(=O)NO)S(C)(=O)=O (stereo not drawn) [Example 141, 4-[4-(4-chlorophenyl)-2-oxopyridin-1(2H)-yl]-N-hydroxy-2-methyl-2-(methylsulfonyl)butanamide] has a PA-7 (MIC) [1, 3] of 1 µg/mL and an EC-1 (MIC) [2, 3] of 1 µg/mL.

CC(C)(C)NC(=O)c1cc(-c2ccn(CCC(C)(C(=O)NO)S(C)(=O)=O)c(=O)c2)ccc1F (stereo not drawn) [Example 211, N-tert-butyl-2-fluoro-5-{1-[4-(hydroxyamino)-3-methyl-3-(methylsulfonyl)-4-oxobutyl]-2-oxo-1,2-dihydropyridin-4-yl}benzamide] was tested, and the PA-7 (MIC) [1] was over 64 µg/mL and the EC-1 (MIC) [2] was 64 µg/mL.

C[C@@](CCn1ccc(-c2ccc(-c3cncs3)cc2)cc1=O)(C(=O)NO)S(C)(=O)=O [Example 406, (2R)-N-hydroxy-2-methyl-2-(methylsulfonyl)-4-{2-oxo-4-[4-(1,3-thiazol-5-yl)phenyl]pyridin-1(2H)-yl}butanamide] showed a PA-7 (MIC) [1] of 0.5 µg/mL and an EC-1 (MIC) [2] of 0.25 µg/mL.

Compound Cc1c(-c2ccn(CCC(C)(C(=O)NO)S(C)(=O)=O)c(=O)c2)cnn1-c1ccccc1 (stereo not drawn) [Example 203, N-hydroxy-2-methyl-4-[4-(5-methyl-1-phenyl-1H-pyrazol-4-yl)-2-oxopyridin-1(2H)-yl]-2-(methylsulfonyl)butanamide] has a PA-7 (MIC) [1] of over 64 µg/mL and an EC-1 (MIC) [2] of 64 µg/mL.

Work on C[C@@](CCn1ccc(-c2ccc(-c3ccc(C#N)nc3)cc2)cc1=O)(C(=O)NO)S(C)(=O)=O [Example 415] yielded a PA-7 (MIC) [1] of 2 µg/mL and an EC-1 (MIC) [2] of 1 µg/mL.

CC(CCn1ccc(-c2ccccc2F)cc1=O)(C(=O)NO)S(C)(=O)=O (stereo not drawn) [Example 159, 4-[4-(2-fluorophenyl)-2-oxopyridin-1(2H)-yl]-N-hydroxy-2-methyl-2-(methylsulfonyl)butanamide] was tested, and the PA-7 (MIC) [1, 3] was 2 µg/mL and the EC-1 (MIC) [2, 3] was 2 µg/mL.

Source: patent publication US8846933B2, “N-link hydroxamic acid derivatives useful as antibacterial agents” (Pfizer Inc., priority 2009, dated 2014)
